Measurements: patent publication US8883799B2, “Tricyclic PI3K inhibitor compounds and methods of use” (Genentech, Inc., priority 2010, dated 2014)

Assays:
p110 alpha PI3K = target: T1, p110 alpha PI3K (Homo sapiens, UniProt P42336); experiment: p110α (alpha) PI3K binding assay (fluorescence polarization; alternatively radiometric); conditions: read-out: IC50, Ki (μmole) PI3K, p110 alpha binding assay
T1 construct: purchased Upstate Cell Signaling Solutions, Charlottesville, Va
Procedure: Binding Assays: Initial polarization experiments were performed on an Analyst HT® 96-384 (Molecular Devices Corp, Sunnyvale, Calif.). […] After an incubation time of 30 minutes at room temperature, the reactions were stopped by the addition of GRP-1 and PIP3-TAMRA probe (Echelon-Inc., Salt Lake City, Utah) 100 nM and 5 nM final concentrations respectively. Read with standard cut-off filters for the rhodamine fluorophore (λex=530 nm; λem=590 nm) in 384-well black low volume Proxiplates® (PerkinElmer, Wellesley, Mass.) Fluorescence polarization values were plotted as a function of the protein concentration, and the EC50 values were obtained by fitting the data to a 4-parameter equation using KaleidaGraph® software (Synergy software, Reading, Pa.). This experiment also establishes the appropriate protein concentration to use in subsequent competition experiments with inhibitors.
After an incubation time of 30 minutes at room temperature, the reactions were stopped by the addition of GRP-1 and PIP3-TAMRA probe (Echelon-Inc., Salt Lake City, Utah) 100 nM and 5 nM final concentrations respectively. Read with standard cut-off filters for the rhodamine fluorophore (λex=530 nm; λem=590 nm) in 384-well black low volume PROXIPLATES® (PerkinElmer, Wellesley, Mass.) Fluorescence polarization values were plotted as a function of the antagonist concentration, and the IC50 values were obtained by fitting the data to a 4-parameter equation in Assay Explorer® software (MDL, San Ramon, Calif.).
The Formula I compound was serially diluted in 100% DMSO. The kinase reaction was incubated for 1 hr at room temperature, and the reaction was terminated by the addition of PBS. IC50 values were subsequently determined using sigmoidal dose-response curve fit (variable slope).

PC3 = experiment: In vitro cell proliferation assay (CellTiter-Glo), PC3; type: cell-based; conditions: Homo sapiens, PC-3; Cell line: PC3; Tissue type: prostate; Mutation Status: PTEN; read-out: EC50 (μmole)
Procedure: (§1) Efficacy of Formula I compounds was measured by a cell proliferation assay employing the following protocol (Promega Corp. Technical Bulletin TB288; Mendoza et al (2002) Cancer Res. 62:5485-5488):
(§2) 1. An aliquot of 100 μl of cell culture containing about 10^4 cells (PC3, Detroit562, or MDAMB361.1) in medium was deposited in each well of a 384-well, opaque-walled plate.
(§3) 2. Control wells were prepared containing medium and without cells.
(§4) 3. The compound was added to the experimental wells and incubated for 3-5 days.
(§5) 4. The plates were equilibrated to room temperature for approximately 30 minutes.
(§6) 5. A volume of CellTiter-Glo® Reagent equal to the volume of cell culture medium present in each well was added.
(§7) 6. The contents were mixed for 2 minutes on an orbital shaker to induce cell lysis.
(§8) 7. The plate was incubated at room temperature for 10 minutes to stabilize the luminescence signal.
(§9) 8. Luminescence was recorded and reported in graphs as RLU=relative luminescence units.
(§10) Alternatively, cells were seeded at optimal density in a 96 well plate and incubated for 4 days in the presence of test compound. Alamar Blue™ was subsequently added to the assay medium, and cells were incubated for 6 hr before reading at 544 nm excitation, 590 nm emission. EC50 values were calculated using a sigmoidal dose response curve fit. The term EC50 refers to the half maximal effective concentration and is the concentration at which a drug induces a response halfway between the baseline and maximum after some specified exposure time. It is commonly used as a measure of drug potency.
(§11) The anti-proliferative effects of Formula I exemplary compounds were measured by the CellTiter-Glo® Assay against various tumor cell lines, including the following: […]

MDA-MB-361.1 = experiment: In vitro cell proliferation assay (CellTiter-Glo), MDA-MB-361.1; type: cell-based; conditions: Cell line: MDA-MB-361.1; Tissue type: breast; Mutation Status: PI3K; read-out: EC50 (μmole)
Procedure: as §1, §2, §3, §4, §5, §6, §7, §8, §9, §10, §11

T1 sequence (P42336 whole entry): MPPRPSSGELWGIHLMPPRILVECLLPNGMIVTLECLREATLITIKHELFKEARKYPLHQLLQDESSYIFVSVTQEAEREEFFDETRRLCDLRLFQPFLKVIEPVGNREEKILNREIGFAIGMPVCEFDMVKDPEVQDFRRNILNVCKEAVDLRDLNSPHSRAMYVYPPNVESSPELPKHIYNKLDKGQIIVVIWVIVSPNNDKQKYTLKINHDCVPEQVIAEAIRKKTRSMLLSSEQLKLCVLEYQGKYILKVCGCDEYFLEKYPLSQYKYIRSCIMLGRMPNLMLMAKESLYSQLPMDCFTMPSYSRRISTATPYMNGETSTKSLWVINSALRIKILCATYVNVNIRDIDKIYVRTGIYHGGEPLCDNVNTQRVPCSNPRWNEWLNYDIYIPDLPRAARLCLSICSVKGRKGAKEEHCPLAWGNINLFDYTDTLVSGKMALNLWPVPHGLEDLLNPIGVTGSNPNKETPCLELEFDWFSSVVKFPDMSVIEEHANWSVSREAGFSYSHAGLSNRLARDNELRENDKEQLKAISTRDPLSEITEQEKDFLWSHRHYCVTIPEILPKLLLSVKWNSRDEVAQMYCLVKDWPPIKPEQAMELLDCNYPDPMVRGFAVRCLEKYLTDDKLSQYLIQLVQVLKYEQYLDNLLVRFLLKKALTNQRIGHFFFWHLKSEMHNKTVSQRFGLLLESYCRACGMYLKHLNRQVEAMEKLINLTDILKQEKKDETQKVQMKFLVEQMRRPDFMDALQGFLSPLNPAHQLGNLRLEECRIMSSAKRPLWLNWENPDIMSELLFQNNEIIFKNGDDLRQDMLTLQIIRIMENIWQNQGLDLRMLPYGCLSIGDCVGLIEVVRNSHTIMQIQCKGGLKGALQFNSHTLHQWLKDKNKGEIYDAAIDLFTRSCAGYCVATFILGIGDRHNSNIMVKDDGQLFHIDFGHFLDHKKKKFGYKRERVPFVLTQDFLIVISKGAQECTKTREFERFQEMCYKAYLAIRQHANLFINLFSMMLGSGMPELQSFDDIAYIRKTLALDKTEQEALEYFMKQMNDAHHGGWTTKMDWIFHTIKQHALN
T1 sequence (P27986 whole entry partner): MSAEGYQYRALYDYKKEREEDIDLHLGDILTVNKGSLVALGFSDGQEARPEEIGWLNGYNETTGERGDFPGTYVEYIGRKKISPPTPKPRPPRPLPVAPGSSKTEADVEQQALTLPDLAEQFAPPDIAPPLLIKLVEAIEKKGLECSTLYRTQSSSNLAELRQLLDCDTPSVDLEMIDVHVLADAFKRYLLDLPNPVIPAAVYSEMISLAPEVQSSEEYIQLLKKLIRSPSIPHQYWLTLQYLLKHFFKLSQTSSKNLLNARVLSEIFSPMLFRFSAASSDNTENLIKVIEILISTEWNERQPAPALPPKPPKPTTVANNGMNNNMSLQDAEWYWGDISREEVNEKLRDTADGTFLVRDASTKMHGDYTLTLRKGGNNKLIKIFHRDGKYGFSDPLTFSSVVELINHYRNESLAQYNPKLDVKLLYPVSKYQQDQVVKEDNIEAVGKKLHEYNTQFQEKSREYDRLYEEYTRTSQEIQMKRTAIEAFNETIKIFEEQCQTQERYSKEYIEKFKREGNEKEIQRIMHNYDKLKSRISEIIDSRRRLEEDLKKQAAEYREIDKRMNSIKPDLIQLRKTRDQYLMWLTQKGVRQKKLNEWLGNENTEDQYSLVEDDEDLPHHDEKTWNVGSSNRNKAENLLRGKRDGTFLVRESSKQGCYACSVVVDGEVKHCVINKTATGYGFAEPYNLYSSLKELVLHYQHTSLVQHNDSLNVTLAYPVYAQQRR

Row | IC50 (p110 alpha PI3K) [nM] | EC50 (PC3) [nM] | EC50 (MDA-MB-361.1) [nM] | Compound
1 | > 695 | > 10000 | > 10000 | CN(C)c1cnc(-c2nc(N3CCOCC3)c3nc4n(c3n2)CCOC4(C)C)cn1 [Compound 163, 5-(6,6-dimethyl-4-morpholino-8,9-dihydro-6H-[1,4]oxazino[3,4-e]purin-2-yl)-N,N-dimethylpyrazin-2-amine]
2 | – | 1400 | 1500 | CC1(C)CN(c2nc(-c3cnc(N)nc3)nc3c2nc2n3CCOC2(C)C)CCO1 [Compound 172, 5-(4-(2,2-dimethylmorpholino)-6,6-dimethyl-8,9-dihydro-6H-[1,4]oxazino[3,4-e]purin-2-yl)pyrimidin-2-amine]
3 | – | 2000 | 81 | Cc1nc(N)ncc1-c1nc(N2CCOCC2)c2nc3n(c2n1)CCOC3(C)C [Compound 102, 5-(6,6-dimethyl-4-morpholino-8,9-dihydro-6h-[1,4]oxazino[3,4-e]purin-2-yl)-4-methylpyrimidin-2-amine]
4 | – | 1900 | 889 | CC1c2nc3c(N4CCOCC4)nc(-c4cnc(N)nc4)nc3n2CCN1C (stereo not shown) [Compound 176, 5-(6,7-dimethyl-4-morpholino-6,7,8,9-tetrahydropyrazino[2,1-e]purin-2-yl)pyrimidin-2-amine]
5 | > 695 | > 10000 | > 10000 | CC(C)Cn1cc(-c2nc(N3CCOCC3)c3nc4n(c3n2)CCOC4(C)C)cn1 [Compound 148, 2-(1-isobutyl-1H-pyrazol-4-yl)-6,6-dimethyl-4-morpholino-8,9-dihydro-6H-[1,4]oxazino[3,4-e]purine]
6 | – | 6900 | 4400 | FC(F)(F)C1OCCn2c1nc1c(N3CCOCC3)nc(-c3cccc4[nH]ncc34)nc12 (stereo not shown) [Compound 169, 2-(1H-indazol-4-yl)-4-morpholino-6-(trifluoromethyl)-8,9-dihydro-6H-[1,4]oxazino[3,4-e]purine]
7 | > 695 | > 10000 | > 10000 | CC1(C)OCCn2c1nc1c(N3CCOCC3)nc(-c3ccc(N)cn3)nc12 [Compound 138, 6-(6,6-dimethyl-4-morpholino-8,9-dihydro-6H-[1,4]oxazino[3,4-e]purin-2-yl)pyridine-3-amine]
8 | – | 697 | 424 | Nc1ncc(-c2nc(N3CCOCC3)c3nc4n(c3n2)CCO[C@H]4C(F)(F)F)cn1 [Compound 139, (R)-5-(4-morpholino-6-(trifluoromethyl)-8,9-dihydro-6H-[1,4]oxazino[3,4-e]purin-2-yl)pyrimidin-2-amine]
9 | – | 208 | 315 | CCNC(=O)Nc1ccc(-c2nc(N3CCOCC3)c3c(n2)C2(C)CCOC2N3C)cc1 (stereo not shown) [Compound 101, 1-[4-(3a,8-dimethyl-7-morpholin-4-yl-3,3a,8,8a-tetrahydro-2h-1-oxa-4,6,8-triaza-cyclopenta[a]inden-5-yl)-phenyl]-3-ethyl-urea]
10 | – | 1800 | 958 | CC1(C)CCn2c(nc3c(N4CCOCC4)nc(-c4cnc(N)nc4)nc32)O1 [Compound 115, 5-(7,7-dimethyl-4-morpholino-8,9-dihydro-7h-[1,3]oxazino[2,3-e]purin-2-yl)pyrimidin-2-amine]
11 | – | 215 | 237 | CC1(C)OCCc2c1sc1c(N3CCOCC3)nc(-c3cnc(N)nc3)nc21 [Compound 168, 5-(8,8-Dimethyl-1-morpholin-4-yl-5,8-dihydro-6H-7-oxa-9-thia-2,4-diaza-fluoren-3-yl)-pyrimidin-2-ylamine]
12 | – | 3600 | 3400 | CC1(C)OCCn2c1nc1c(N3C[C@@H]4C[C@H]3CO4)nc(-c3cnc(N)nc3)nc12 [Compound 174, 5-(4-((1S,4S)-2-oxa-5-azabicyclo[2.2.1]heptan-5-yl)-6,6-dimethyl-8,9-dihydro-6H-[1,4]oxazino[3,4-e]purin-2-yl)pyrimidin-2-amine]
13 | – | 1300 | 1200 | CC(C)NC(=O)Nc1ccc(-c2nc(N3CCOCC3)c3nc4n(c3n2)CCOC4(C)C)cc1 [Compound 165, 1-(4-(6,6-dimethyl-4-morpholino-8,9-dihydro-6H-[1,4]oxazino[3,4-e]purin-2-yl)phenyl)-3-isopropylurea]
14 | – | 185 | 94 | CC1(C)OCCn2c1cc1c(N3CCOCC3)nc(-c3cnc(N)nc3)nc12 [Compound 177, 5-(8,8-Dimethyl-1-morpholin-4-yl-5,6-dihydro-8H-7-oxa-2,4,4b-triaza-fluoren-3-yl)-pyrimidin-2-ylamine]
15 | – | 3800 | 3100 | C[C@@H]1CN(c2nc(-c3cnc(N)nc3)nc3c2nc2n3CCOC2(C)C)C[C@H](C)O1 [Compound 171, 5-(4-((2S,6R)-2,6-dimethylmorpholino)-6,6-dimethyl-8,9-dihydro-6H-[1,4]oxazino[3,4-e]purin-2-yl)pyrimidin-2-amine]
16 | – | 2000 | 3200 | Nc1ncc(-c2nc(N3CCOCC3)c3c(n2)N2CCC[C@H]2CO3)cn1 [Compound 122, 5-((S)-6-Morpholin-4-yl-2,3,3a,4-tetrahydro-1H-5-oxa-7,9,9b-triaza-cyclopenta[a]naphthalen-8-yl)-pyrimidin-2-ylamine]
17 | – | 1100 | 920 | Oc1cccc(-c2nc(N3CCOCC3)c3nc4n(c3n2)CCOC4C(F)(F)F)c1 (stereo not shown) [Compound 170, 3-(4-morpholino-6-(trifluoromethyl)-8,9-dihydro-6H-[1,4]oxazino[3,4-e]purin-2-yl)phenol]
